Source: PubChem BioAssay (NCI)
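Where inhibition never reached the appropriate level, the endpoint shown equals the highest concentration tested. Otherwise, values were interpolated linearly from a five-concentration, 48-hour dose response in 96-well plates. GI50 = concentration required for 50% inhibition of growth. TGI: total growth inhibition.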

Columns and labels:
Assay in all cases: NCI-60 cell line screen, 48 h
LOX IMVI melanoma = system: LOX IMVI melanoma
COLO 205 colon = system: COLO 205 colon
A498 renal = system: A498 renal
HL-60(TB) leukemia = system: HL-60(TB) leukemia
SF-295 CNS = system: SF-295 CNS
SNB-75 CNS = system: SNB-75 CNS
PC-3 prostate = system: PC-3 prostate
CAKI-1 renal = system: CAKI-1 renal
SW-620 colon = system: SW-620 colon
NCI-H226 lung = system: NCI-H226 lung
IGROV1 ovarian = system: IGROV1 ovarian
HOP-62 NSCLC = system: HOP-62 NSCLC
OVCAR-4 ovarian = system: OVCAR-4 ovarian
SNB-19 CNS = system: SNB-19 CNS
ACHN renal = system: ACHN renal
MDA-MB-231 breast = system: MDA-MB-231 breast
SR leukemia = system: SR leukemia
UO-31 renal = system: UO-31 renal
MOLT-4 leukemia = system: MOLT-4 leukemia
SK-MEL-5 melanoma = system: SK-MEL-5 melanoma
NCI/ADR-RES ovarian = system: NCI/ADR-RES ovarian
SF-539 CNS = system: SF-539 CNS
SN12C renal = system: SN12C renal
K-562 leukemia = system: K-562 leukemia
HCC-2998 colon = system: HCC-2998 colon
RPMI-8226 leukemia = system: RPMI-8226 leukemia
OVCAR-5 ovarian = system: OVCAR-5 ovarian
786-0 renal = system: 786-0 renal
RXF 393 renal = system: RXF 393 renal
HCT-15 colon = system: HCT-15 colon
OVCAR-3 ovarian = system: OVCAR-3 ovarian
TK-10 renal = system: TK-10 renal
UACC-62 melanoma = system: UACC-62 melanoma
MALME-3M melanoma = system: MALME-3M melanoma
MDA-MB-435 = system: MDA-MB-435
DU-145 prostate = system: DU-145 prostate
NCI-H460 lung = system: NCI-H460 lung
MCF7 breast = system: MCF7 breast
OVCAR-8 ovarian = system: OVCAR-8 ovarian
SF-268 CNS = system: SF-268 CNS
BT-549 breast = system: BT-549 breast
HT29 colon = system: HT29 colon
T-47D breast = system: T-47D breast
HOP-92 NSCLC = system: HOP-92 NSCLC
NCI-H23 lung = system: NCI-H23 lung
M14 melanoma = system: M14 melanoma
U251 CNS = system: U251 CNS
SK-OV-3 ovarian = system: SK-OV-3 ovarian
KM12 colon = system: KM12 colon
SK-MEL-28 melanoma = system: SK-MEL-28 melanoma
HS 578T breast = system: HS 578T breast
HCT-116 colon = system: HCT-116 colon
SK-MEL-2 melanoma = system: SK-MEL-2 melanoma
EKVX NSCLC = system: EKVX NSCLC
CCRF-CEM leukemia = system: CCRF-CEM leukemia
NCI-H522 lung = system: NCI-H522 lung
UACC-257 melanoma = system: UACC-257 melanoma
A549 NSCLC = system: A549 NSCLC

Q: What does the source list for `CCCC(c1nnnn1C1CCCCC1)N1CCN(C(=O)c2ccco2)CC1` (centres undefined)?
A: GI50 (LOX IMVI melanoma): > 100 µM; TGI (LOX IMVI melanoma): > 100 µM; GI50 (COLO 205 colon): > 100 µM; TGI (COLO 205 colon): > 100 µM; GI50 (A498 renal): > 100 µM; TGI (A498 renal): > 100 µM; GI50 (HL-60(TB) leukemia): > 100 µM; TGI (HL-60(TB) leukemia): > 100 µM; GI50 (SF-295 CNS): > 100 µM; TGI (SF-295 CNS): > 100 µM; GI50 (SNB-75 CNS): > 100 µM; TGI (SNB-75 CNS): > 100 µM; GI50 (PC-3 prostate): > 100 µM; TGI (PC-3 prostate): > 100 µM; GI50 (CAKI-1 renal): > 100 µM; TGI (CAKI-1 renal): > 100 µM; GI50 (SW-620 colon): > 100 µM; TGI (SW-620 colon): > 100 µM; GI50 (NCI-H226 lung): > 100 µM; TGI (NCI-H226 lung): > 100 µM; GI50 (IGROV1 ovarian): > 100 µM; TGI (IGROV1 ovarian): > 100 µM; GI50 (HOP-62 NSCLC): > 100 µM; TGI (HOP-62 NSCLC): > 100 µM; GI50 (OVCAR-4 ovarian): > 100 µM; TGI (OVCAR-4 ovarian): > 100 µM; GI50 (SNB-19 CNS): > 100 µM; TGI (SNB-19 CNS): > 100 µM; GI50 (ACHN renal): > 100 µM; TGI (ACHN renal): > 100 µM; GI50 (MDA-MB-231 breast): > 100 µM; TGI (MDA-MB-231 breast): > 100 µM; GI50 (SR leukemia): > 100 µM; TGI (SR leukemia): > 100 µM; GI50 (UO-31 renal): > 100 µM; TGI (UO-31 renal): > 100 µM; GI50 (MOLT-4 leukemia): > 100 µM; TGI (MOLT-4 leukemia): > 100 µM; GI50 (SK-MEL-5 melanoma): > 100 µM; TGI (SK-MEL-5 melanoma): > 100 µM; GI50 (NCI/ADR-RES ovarian): > 100 µM; TGI (NCI/ADR-RES ovarian): > 100 µM; GI50 (SF-539 CNS): > 100 µM; TGI (SF-539 CNS): > 100 µM; GI50 (SN12C renal): > 100 µM; TGI (SN12C renal): > 100 µM; GI50 (K-562 leukemia): > 100 µM; TGI (K-562 leukemia): > 100 µM; GI50 (HCC-2998 colon): > 100 µM; TGI (HCC-2998 colon): > 100 µM; GI50 (RPMI-8226 leukemia): > 100 µM; TGI (RPMI-8226 leukemia): > 100 µM; GI50 (OVCAR-5 ovarian): > 100 µM; TGI (OVCAR-5 ovarian): > 100 µM; GI50 (786-0 renal): > 100 µM; TGI (786-0 renal): > 100 µM; GI50 (RXF 393 renal): > 100 µM; TGI (RXF 393 renal): > 100 µM; GI50 (HCT-15 colon): > 100 µM; TGI (HCT-15 colon): > 100 µM; GI50 (OVCAR-3 ovarian): > 100 µM; TGI (OVCAR-3 ovarian): > 100 µM; GI50 (TK-10 renal): > 100 µM; TGI (TK-10 renal): > 100 µM; GI50 (UACC-62 melanoma): > 100 µM; TGI (UACC-62 melanoma): > 100 µM; GI50 (MALME-3M melanoma): > 100 µM; TGI (MALME-3M melanoma): > 100 µM; GI50 (MDA-MB-435): > 100 µM; TGI (MDA-MB-435): > 100 µM; GI50 (DU-145 prostate): > 100 µM; TGI (DU-145 prostate): > 100 µM; GI50 (NCI-H460 lung): > 100 µM; TGI (NCI-H460 lung): > 100 µM; GI50 (MCF7 breast): > 100 µM; TGI (MCF7 breast): > 100 µM; GI50 (OVCAR-8 ovarian): > 100 µM; TGI (OVCAR-8 ovarian): > 100 µM; GI50 (SF-268 CNS): > 100 µM; TGI (SF-268 CNS): > 100 µM; GI50 (BT-549 breast): > 100 µM; TGI (BT-549 breast): > 100 µM; GI50 (HT29 colon): > 100 µM; TGI (HT29 colon): > 100 µM; GI50 (T-47D breast): > 100 µM; TGI (T-47D breast): > 100 µM; GI50 (HOP-92 NSCLC): > 100 µM; TGI (HOP-92 NSCLC): > 100 µM; GI50 (NCI-H23 lung): > 100 µM; TGI (NCI-H23 lung): > 100 µM; GI50 (M14 melanoma): > 100 µM; TGI (M14 melanoma): > 100 µM; GI50 (U251 CNS): > 100 µM; TGI (U251 CNS): > 100 µM; GI50 (SK-OV-3 ovarian): > 100 µM; TGI (SK-OV-3 ovarian): > 100 µM; GI50 (KM12 colon): > 100 µM; TGI (KM12 colon): > 100 µM; GI50 (SK-MEL-28 melanoma): > 100 µM; TGI (SK-MEL-28 melanoma): > 100 µM; GI50 (HS 578T breast): > 100 µM; TGI (HS 578T breast): > 100 µM; GI50 (HCT-116 colon): > 100 µM; TGI (HCT-116 colon): > 100 µM; GI50 (SK-MEL-2 melanoma): > 100 µM; TGI (SK-MEL-2 melanoma): > 100 µM

Q: `Cc1ccc(Nc2nc3nc[nH]c3c(=O)[nH]2)cc1CO` was tested. Which TGI (LOX IMVI melanoma) did it give?
A: Its TGI is 36.5 µM.

Q: What about the TGI (COLO 205 colon) of the same molecule?
A: The TGI was 27.8 µM.

Q: And the TGI (HL-60(TB) leukemia)?
A: The TGI was 21.6 µM.

Q: What about the TGI (SF-295 CNS) of the same molecule?
A: Its TGI is 29.6 µM.

Q: What about the TGI (SNB-75 CNS) of the same molecule?
A: The TGI was 29.2 µM.

Q: And the TGI (PC-3 prostate)?
A: The TGI was 25.4 µM.

Q: And the TGI (CAKI-1 renal)?
A: The TGI was 29.3 µM.

Q: And the TGI (SW-620 colon)?
A: Its TGI is 32 µM.

Q: And the TGI (NCI-H226 lung)?
A: Its TGI is 31.8 µM.

Q: What about the TGI (IGROV1 ovarian) of the same molecule?
A: Its TGI is 28.3 µM.

Q: And the TGI (OVCAR-4 ovarian)?
A: The TGI was 31.4 µM.

Q: And the TGI (SNB-19 CNS)?
A: The TGI was 24.6 µM.

Q: What about the TGI (ACHN renal) of the same molecule?
A: The TGI was 29.4 µM.

Q: And the TGI (MDA-MB-231 breast)?
A: The TGI was 24.7 µM.

Q: And the TGI (SR leukemia)?
A: Its TGI is 37.7 µM.

Q: And the TGI (UO-31 renal)?
A: Its TGI is 29.5 µM.

Q: What about the TGI (MOLT-4 leukemia) of the same molecule?
A: The TGI was 34.3 µM.

Q: And the TGI (EKVX NSCLC)?
A: Its TGI is 28 µM.

Q: And the TGI (SK-MEL-5 melanoma)?
A: Its TGI is 31.2 µM.

Q: And the TGI (NCI/ADR-RES ovarian)?
A: Its TGI is 29.8 µM.

Q: What about the TGI (CCRF-CEM leukemia) of the same molecule?
A: The TGI was 36.2 µM.

Q: And the TGI (K-562 leukemia)?
A: Its TGI is 40 µM.

Q: And the TGI (HCC-2998 colon)?
A: The TGI was 28.9 µM.

Q: And the TGI (RPMI-8226 leukemia)?
A: Its TGI is 33.7 µM.

Q: And the TGI (OVCAR-5 ovarian)?
A: Its TGI is 33.6 µM.

Q: What about the TGI (786-0 renal) of the same molecule?
A: Its TGI is 29.1 µM.

Q: What about the TGI (RXF 393 renal) of the same molecule?
A: The TGI was 30 µM.

Q: And the TGI (HCT-15 colon)?
A: The TGI was 29.9 µM.

Q: What about the TGI (OVCAR-3 ovarian) of the same molecule?
A: The TGI was 29.2 µM.

Q: And the TGI (NCI-H522 lung)?
A: The TGI was 24.3 µM.

Q: And the TGI (TK-10 renal)?
A: The TGI was 31.9 µM.

Q: What about the TGI (UACC-62 melanoma) of the same molecule?
A: The TGI was 25.9 µM.

Q: And the TGI (MALME-3M melanoma)?
A: Its TGI is 30.4 µM.

Q: What about the TGI (MDA-MB-435) of the same molecule?
A: Its TGI is 29.6 µM.

Q: And the TGI (DU-145 prostate)?
A: Its TGI is 33.6 µM.

Q: What about the TGI (NCI-H460 lung) of the same molecule?
A: Its TGI is 30.7 µM.

Q: And the TGI (MCF7 breast)?
A: Its TGI is 30.4 µM.

Q: What about the TGI (UACC-257 melanoma) of the same molecule?
A: The TGI was 31.2 µM.

Q: And the TGI (OVCAR-8 ovarian)?
A: The TGI was 30.4 µM.

Q: What about the TGI (SF-268 CNS) of the same molecule?
A: Its TGI is 35.8 µM.

Q: And the TGI (BT-549 breast)?
A: The TGI was 28.4 µM.

Q: And the TGI (HT29 colon)?
A: The TGI was 22 µM.

Q: What about the TGI (T-47D breast) of the same molecule?
A: Its TGI is 27.2 µM.

Q: And the TGI (HOP-92 NSCLC)?
A: The TGI was 21 µM.

Q: And the TGI (NCI-H23 lung)?
A: Its TGI is 33.9 µM.

Q: And the TGI (M14 melanoma)?
A: Its TGI is 25.5 µM.

Q: And the TGI (SK-OV-3 ovarian)?
A: The TGI was 27.7 µM.

Q: What about the TGI (KM12 colon) of the same molecule?
A: The TGI was 22.7 µM.

Q: And the TGI (SK-MEL-28 melanoma)?
A: The TGI was 32.1 µM.

Q: And the TGI (HS 578T breast)?
A: Its TGI is 43.9 µM.

Q: What about the TGI (HCT-116 colon) of the same molecule?
A: The TGI was 25.4 µM.

Q: What about the TGI (A549 NSCLC) of the same molecule?
A: Its TGI is 10.2 µM.

Q: And the TGI (SK-MEL-2 melanoma)?
A: The TGI was 31.2 µM.
